From EP0062704A1, “Cyclopropanecarboxylic-acid ester as an agent in the fight against larves of the Gasterophilidae family in Equidae” (HOECHST AKTIENGESELLSCHAFT, priority 1980, dated 1982)
Marks after values point to notes of the source that are not given here.

Tests used:
[1] = system: Larven III der Magenbremse, Gasterophilus intestinalis; assay: In vitro test on larvae III of Gasterophilus intestinalis (5 min immersion, mortality count); conditions: 10 larvae immersed 5 min in 0,1 % active dilution, kept at about 37°C
Source text: Beispiel 2 : In vitro Test an Larven von Gasterophilus intestinalis
Die Verbindungen (S)-a-Cyan-3-phenoxybenzyl(1R)-cis-3-(2,2-dibromvinyl)-2,2-dimethylcyclopropancarboxylat, nachfolgend bezeichnet als Verbindung A, (S)-a-Cyan-3-phenoxybenzyl (1R)-cis-3-(2,2-dichlorvinyl)-2,2-dimethylcyclopropancarboxylat, nachfolgend bezeichnet als Verbindung B, (S)-o-Cyan-3-phenoxybenzyl(1R)-cis-3-(2', 2'-dichlor-1',2'-dibromäthyl)-2,2-dimethylcyclopropancarboxylat, nachfolgend bezeichnet als Verbindung C, werden in Zubereitungen nach Beispiel 1 a) so in Wasser verdünnt, daß die Verdünnungen 0,1 % der Wirkstoffe enthalten. Zum Vergleich wird Dimethyl-2,2,2-trichloro-1-hydroxyäthyl-phosphonat (Trichlorfon) in derselben Verdünnung verwendet.
Larven III der Magenbremse, Gasterophilus intestinalis, werden aus dem Magen eines geschlachteten Pferdes entnommen. Jeweils zehn Larven werden in Bechergläsern in die Verdünnungen für 5 Minuten eingetaucht. Zur Kontrolle werden 10 Larven in Wasser eingetaucht. Danach werden die Larven auf Filterpapier getrocknet und in Behälter aus Styropor verbracht, die unter einer Wärmelampe bei etwa 37°C aufbewahrt werden. Nach 1, 6, 24, 48, 72, 96 und 120 Stunden werden alle Larven untersucht und deren Mortalität protokolliert.

[2] = system: Gasterophilus intestinalis; assay: In vivo test in horses infested with stomach bots: G. intestinalis; conditions: 10 mg/kg by nasogastric tube; for %-Wirksamkeit: expelled and dead larvae as percent of all larvae present, horse; for noch im Magen festgeheftet: larvae at necropsy on day 7, horse; for Zahl der Larven im Kot Total: total of days 1-7, horse
Method: (§1) Beispiel 3: In vivo-Prüfung an Pferden mit Magendasselbefall
(§2) Zwei Pferde mit Körpergewichten von 190 kg und 142 kg werden mit den Verbindungen A bzw. C aus Beispiel II behandelt. Die Dosis beträgt 10 mg/kg Körpergewicht. Die sich aus der Dosis und der Konzentration der Arzneizubereitung nach Beispiel 2 zu errechnende Menge der Zubereitung wird im Volumenverhältnis 1 : 1 mit Wasser verdünnt und den Pferden mittels Nasenschlundsonde verabreicht.
(§3) Nach der Behandlung werden die Pferde in Einzelboxen aufgestellt. […] Vorhandene Dassellarven werden gezählt und ihre Artzugehörigkeit bestimmt. Am siebten Tag nach der Behandlung werden die Pferde getötet und der Magen-Darmtrakt auf das Vorhandensein noch angehefteter und toter Dassellarven untersucht.
(§4) Die Zahl der abgegangenen und toten Larven wird auf die Gesamtzahl vorhandener Larven prozentual bezogen und ihr Prozentsatz als "% Wirksamkeit" bezeichnet. Somit besagen 100 %, daß alle und 0 %, daß keine Larven abgetötet und abgetrieben werden.

Gasterophilus nasalis = assay: In vivo test in horses infested with stomach bots: G. nasalis; conditions: 10 mg/kg by nasogastric tube; for %-Wirksamkeit: expelled and dead larvae as percent of all larvae present, horse; for noch im Magen festgeheftet: larvae at necropsy on day 7, horse; for Zahl der Larven im Kot Total: total of days 1-7, horse
Method: as §1, §2, §3, §4

Compound	Zahl toter Larven Stunden nach Behandlung ([1]; 1 h after treatment)	Zahl toter Larven Stunden nach Behandlung ([1]; 6 h after treatment)	Zahl toter Larven Stunden nach Behandlung ([1]; 24 h after treatment)	Zahl toter Larven Stunden nach Behandlung ([1]; 48 h after treatment)	Zahl toter Larven Stunden nach Behandlung ([1]; 72 h after treatment)	Zahl toter Larven Stunden nach Behandlung ([1]; 96 h after treatment)	Zahl toter Larven Stunden nach Behandlung ([1]; 120 h after treatment)	Zahl der Larven im Kot an den Tagen nach der Behandlung ([2]; day 1, horse)	Zahl der Larven im Kot an den Tagen nach der Behandlung ([2]; day 2, horse)	Zahl der Larven im Kot an den Tagen nach der Behandlung ([2]; day 3, horse)	Zahl der Larven im Kot an den Tagen nach der Behandlung ([2]; day 4, horse)	Zahl der Larven im Kot an den Tagen nach der Behandlung ([2]; day 5, horse)	Zahl der Larven im Kot an den Tagen nach der Behandlung ([2]; day 6, horse)	Zahl der Larven im Kot an den Tagen nach der Behandlung ([2]; day 7, horse)	%-Wirksamkeit [2] [%]	noch im Magen festgeheftet [2]	Zahl der Larven im Kot Total [2]	Zahl der Larven im Kot an den Tagen nach der Behandlung (Gasterophilus nasalis; day 1, horse)	Zahl der Larven im Kot an den Tagen nach der Behandlung (Gasterophilus nasalis; day 2, horse)	Zahl der Larven im Kot an den Tagen nach der Behandlung (Gasterophilus nasalis; day 3, horse)	also measured
CC1(C)[C@H](C(=O)O[C@H](C#N)c2cccc(Oc3ccccc3)c2)[C@@H]1C=C(Cl)Cl [Verbindung B, (S)-a-Cyan-3-phenoxybenzyl (1R)-cis-3-(2,2-dichlorvinyl)-2,2-dimethylcyclopropancarboxylat]	10	10	10	10	10	10	10														
CC1(C)[C@H](C(=O)O[C@H](C#N)c2cccc(Oc3ccccc3)c2)[C@@H]1C=C(Br)Br [Verbindung A, (S)-a-Cyan-3-phenoxybenzyl(1R)-cis-3-(2,2-dibromvinyl)-2,2-dimethylcyclopropancarboxylat]	10	10	10	10	10	10	10	2	16	18	5	0	0	0	93	3	41	1	4	1	Zahl der Larven im Kot an den Tagen nach der Behandlung (Gasterophilus nasalis; day 4, horse): 0; Zahl der Larven im Kot an den Tagen nach der Behandlung (Gasterophilus nasalis; day 5, horse): 0; Zahl der Larven im Kot an den Tagen nach der Behandlung (Gasterophilus nasalis; day 6, horse): 0; Zahl der Larven im Kot an den Tagen nach der Behandlung (Gasterophilus nasalis; day 7, horse): 0; %-Wirksamkeit (Gasterophilus nasalis): 100%; noch im Magen festgeheftet (Gasterophilus nasalis): 0; Zahl der Larven im Kot Total (Gasterophilus nasalis): 6
CC1(C)[C@H](C(=O)O[C@H](C#N)c2cccc(Oc3ccccc3)c2)[C@@H]1C(Br)C(Cl)(Cl)Br (stereo partly drawn) [Verbindung C, (S)-o-Cyan-3-phenoxybenzyl(1R)-cis-3-(2', 2'-dichlor-1',2'-dibromäthyl)-2,2-dimethylcyclopropancarboxylat]	4	10	10	10	10	10	10	1	2	8	10	7	2	0	100	0	30	0	3	7	Zahl der Larven im Kot an den Tagen nach der Behandlung (Gasterophilus nasalis; day 4, horse): 1; Zahl der Larven im Kot an den Tagen nach der Behandlung (Gasterophilus nasalis; day 5, horse): 0; Zahl der Larven im Kot an den Tagen nach der Behandlung (Gasterophilus nasalis; day 6, horse): 0; Zahl der Larven im Kot an den Tagen nach der Behandlung (Gasterophilus nasalis; day 7, horse): 0; %-Wirksamkeit (Gasterophilus nasalis): 100%; noch im Magen festgeheftet (Gasterophilus nasalis): 0; Zahl der Larven im Kot Total (Gasterophilus nasalis): 11
COP(=O)(OC)C(O)C(Cl)(Cl)Cl (centres unmarked) [Trichlorfon, Dimethyl-2,2,2-trichloro-1-hydroxyäthyl-phosphonat, reference compound]	6*	7*	4*	5*	9*	6*	6*														
